Measured values from patent US9511050B2, “Methods and compositions for treating cancer” (GEORGETOWN UNIVERSITY, priority 2013, dated 2016).
pIC50, pKd: −log10 of the molar value. Where two headings read alike, the source gives them in different places.

Experiments:
[1] = test system: ES xenografts; test: ES xenograft tumor regression in mice; format: in vivo; details: 400 mg/kg intraperitoneal, three days, 6 total doses, tumors 300 mm^3
Experimental: FIG. 13A: Mice with ES xenografts were treated with 400 mg/kg compound or controls as indicated. Starting well-established tumors (300 mm^3), mice were treated with intraperitoneal compound for three days, 6 total doses. FIG. 13B: H and E stained tumors from same experiment.
YK-4-279 upon xenograft GBM tumors is evaluated by treating animals seven days after tumor injection and those with symptomatic tumors. Early tumors are screened with Xenogen, and size correlated with MRI, and treatment started when animals 5 mm^3 lesions. YK-4-279 passes the blood-brain barrier. […] The study will measure brain tumor volumes, animal symptoms, and overall survival. At necropsy, tumors and normal adjacent brain will be evaluated by immunohistochemistry for GBM markers, apoptosis, and FLI1 regulated target genes. […] FIG. 13A: Mice with ES xenografts were treated with 400 mg/kg compound or controls as indicated. Starting well-established tumors (300 mm^3), mice were treated with intraperitoneal compound for three days, 6 total doses. FIG. 13B: H and E stained tumors from same experiment.

[2] = target: T1, EWS-FLI1 (Homo sapiens, UniProt Q01543+Q01844); details: enantiomer specificity; cited from earlier work
T1 sequence (Q01543 220-452 limits assumed): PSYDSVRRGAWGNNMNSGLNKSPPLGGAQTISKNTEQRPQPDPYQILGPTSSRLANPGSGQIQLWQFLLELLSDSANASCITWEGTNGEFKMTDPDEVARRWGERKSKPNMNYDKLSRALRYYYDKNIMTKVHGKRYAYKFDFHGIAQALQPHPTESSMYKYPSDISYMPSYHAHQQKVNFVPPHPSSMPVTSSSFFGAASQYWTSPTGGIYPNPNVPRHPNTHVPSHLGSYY

[3] = test system: PANC1 (a human pancreatic carcinoma); test: IC50 activity in PANC1 cells; format: cell-based
Experimental: (§1) Compounds provided in Table 2 were prepared using methods similar to those described herein. The structures and IC50 activities of particular compounds in PANC1 (a human pancreatic carcinoma), TC32 (human ESFT cell line), and TC71 (human ESFT cell line) cells are summarized in Table 2.

[4] = test system: TC32 (human ESFT cell line); test: IC50 activity in TC32 cells; format: cell-based
Experimental: as §1

[5] = test system: TC71 (human ESFT cell line); test: IC50 activity in TC71 cells; format: cell-based
Experimental: as §1
(§2) Growth inhibition of ESFT cells was measured for various concentrations of particular compounds.

[6] = test system: ESFT cells; test: Growth inhibition of ESFT cells; format: cell-based; details: ESFT cells growing in monolayer
Experimental: as §2

[7] = target: T2, EWS-FLI1/RHA interaction (Homo sapiens, UniProt Q01543+Q01844); test: Immunoblot/co-precipitation of RHA and EWS-FLI1 from treated TC32 cells; format: cell-based; details: TC32 cell lysates
T2 construct: endogenous in cells; host or cells: TC32
T2 sequence (Q01844+Q01543 with tags, fused parts or gaps): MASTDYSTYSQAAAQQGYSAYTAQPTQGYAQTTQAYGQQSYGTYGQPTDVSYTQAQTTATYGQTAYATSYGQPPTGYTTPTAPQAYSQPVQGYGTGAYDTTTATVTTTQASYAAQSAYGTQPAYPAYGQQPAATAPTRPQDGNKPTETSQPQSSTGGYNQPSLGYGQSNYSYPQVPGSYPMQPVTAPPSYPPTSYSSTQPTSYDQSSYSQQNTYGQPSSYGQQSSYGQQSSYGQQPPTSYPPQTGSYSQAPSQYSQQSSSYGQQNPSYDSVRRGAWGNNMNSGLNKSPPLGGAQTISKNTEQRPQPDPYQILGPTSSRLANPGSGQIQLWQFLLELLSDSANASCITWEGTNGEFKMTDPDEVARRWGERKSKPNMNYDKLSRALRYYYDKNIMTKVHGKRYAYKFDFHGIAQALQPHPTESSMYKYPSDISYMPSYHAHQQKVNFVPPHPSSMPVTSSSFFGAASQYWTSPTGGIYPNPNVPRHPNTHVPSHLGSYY

[8] = target: BSA (Bos taurus, UniProt P02769); test: Surface plasmon resonance binding to non-specific protein BSA; details: SPR, read-out: affinity for BSA
Chain of BSA (P02769 25-607): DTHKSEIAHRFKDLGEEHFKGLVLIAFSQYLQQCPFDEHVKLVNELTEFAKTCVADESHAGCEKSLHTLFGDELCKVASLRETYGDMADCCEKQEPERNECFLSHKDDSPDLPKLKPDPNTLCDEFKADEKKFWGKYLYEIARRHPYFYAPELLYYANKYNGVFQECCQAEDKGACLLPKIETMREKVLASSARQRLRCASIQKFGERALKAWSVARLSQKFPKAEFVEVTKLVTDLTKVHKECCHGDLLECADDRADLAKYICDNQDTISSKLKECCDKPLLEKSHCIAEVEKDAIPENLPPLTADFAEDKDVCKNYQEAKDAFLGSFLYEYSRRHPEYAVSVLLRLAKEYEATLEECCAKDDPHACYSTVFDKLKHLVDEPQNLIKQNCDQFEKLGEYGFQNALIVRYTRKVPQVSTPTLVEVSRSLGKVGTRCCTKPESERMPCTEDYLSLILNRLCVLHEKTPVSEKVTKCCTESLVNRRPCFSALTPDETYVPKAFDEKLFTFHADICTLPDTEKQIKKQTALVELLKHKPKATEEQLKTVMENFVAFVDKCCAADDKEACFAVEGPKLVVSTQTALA
Experimental: Steady state kinetics were measured on a Biacore T100 instrument, as previously described (Erkizan H V, Kong Y, Merchant M, Schlottmann S, Barber-Rotenberg J S, Yuan L, et al. A small molecule blocking oncogenic protein EWS-FLI1 interaction with RNA helicase A inhibits growth of Ewing's sarcoma. Nat Med. 2009 July; 15(7):750-6. PubMed PMID: 19584866. Eng; Barber-Rotenberg J S, Selvanath), SPR sensograms are not shown.

[9] = test system: GBM cell lines; test: Growth of GBM cell lines; format: cell-based; details: range over GBM cell lines
Source text: Seven cell lines were selected with a spectrum of genetic abnormalities that occur in GBM. […] A panel of GBM cell lines were acquired that represent the heterogeneity of the disease.

[10] = Rat pharmacokinetics, IV injection, observation; format: in vivo; details: rats, rapid injection; did not occur with slower infusion
Source text: One of the significant challenges in getting novel targeted therapy into GBM is overcoming the blood-brain barrier (BBB).

[11] = target: T3, EWS-FLI1 (Homo sapiens, UniProt Q01543); details: read-out: affinity (KD) for EWS-FLI1; cited from earlier work
T3 sequence (Q01543 220-452 limits assumed): T1 sequence (Q01543 220-452 limits assumed)

[12] = test system: Ewing Sarcoma xenograft; details: Ewing Sarcoma xenograft models; cited from earlier work
[13] = Homo sapiens, PANC-1, PANC1 cells
[14] = Homo sapiens, TC-32, TC32 cells
[15] = Homo sapiens, TC-71, TC71 cells

Structure (SMILES)	pIC50 [3, 13]	pIC50 [4, 14]	pIC50 [5, 15]	other results
COc1ccc(C(=O)C[C@@]2(O)C(=O)Nc3c(Cl)ccc(Cl)c32)cc1 [(S)-YK-4-279]				tumor response [1]: significant tumor regression; inhibition of functional activities of EWS-FLI1 [2]: able to inhibit the functional activities of EWS-FLI1
COc1ccc(C(=O)CC2(O)C(=O)Nc3c(Cl)ccc(Cl)c32)cc1 (racemic) [YK-4-279]	4.70	6.03	6.04	pIC50 ([3]; PANC1 cells, read-out: IC50 PANC 1): 4.47; pIC50 ([4]; TC32 cells): 6.12; pIC50 ([5]; TC71 cells): 5.85; pIC50 [6]: 6.05; interaction of RHA with EWS-FLI1 ([7]; co-precipitation): did disrupt their interactions; level of EWS-FLI1 or RHA ([7]; immunoblot): did not directly affect the level of EWS-FLI1 or RHA; pKd [8]: 3.91; pIC50 [9]: 5.00 to 6.30; observation after IV injection [10]: rats became somnolent after rapid injection; tumor response [1]: significant tumor regression; pKd [11]: 5.02; tumor growth [12]: reduced tumor growth
O=C(CC1(O)C(=O)Nc2c(Cl)ccc(Cl)c21)c1cccc(Cl)c1 (centres unmarked) [YK-4-281]	≤ 4.40	5.14	4.53	
CN(C)c1ccc(C(=O)CC2(O)C(=O)Nc3c(Cl)ccc(Cl)c32)cc1 (centres unmarked) [PT-1-17]	≤ 4.40	6.59	6.40	pIC50 ([4]; TC32 cells): 6.55; pIC50 ([5]; TC71 cells): 6.53; potency compared with YK-4-279 ([5]; TC71 cells): appeared to be more potent
COc1ccc(C(=O)CC2(O)C(=O)N(C)c3ccccc32)cc1 (centres unmarked) [PT-2-64]	≤ 4.40	≤ 4.40	≤ 4.40	
COc1ccc(C(=O)CC2(O)C(=O)Nc3cc(Cl)c(Cl)cc32)cc1 (centres unmarked) [PT-2-39]	≤ 4.40	≤ 4.40	≤ 4.40	
CC(C)Oc1ccc(C(=O)CC2(O)C(=O)Nc3c(Cl)ccc(Cl)c32)cc1 (centres unmarked) [PT-1-69]	≤ 4.40	≤ 4.40	≤ 4.40	
O=C(CC1(O)C(=O)Nc2c(Cl)ccc(Cl)c21)c1ccccc1 (centres unmarked) [YK-4-285]	≤ 4.40	≤ 4.40	≤ 4.40	
